Patent publication US20260207585A1, “METHODS AND COMPOSITIONS FOR THE TREATMENT OF PARKINSON'S DISEASE, HUNTINGTON'S DISEASE, AMYOTROPHIC LATERAL SCLEROSIS, AND LEARNING DISORDERS” (Cedars-Sinai Medical Center, priority 2022, published 2026)
Like-named read-outs stand apart in the source and are kept apart here.

Tests used:
[1] = system: GFAP; experiment: GFAP staining of brain sections; format: in vivo; conditions: AD+ mice; 4 and 15 days
Text: ETP69 administration reduced AD-related brain pathology (FIGS. 9A-9C). Brain sections were stained for H3K9me3, 6E10 and GFAP.

[2] = biological target: T1, PRMT7 (Homo sapiens, UniProt Q9NVM4); experiment: Methyltransferase inhibition panel: PRMT7; format: biochemical
T1 sequence (Q9NVM4 1-692): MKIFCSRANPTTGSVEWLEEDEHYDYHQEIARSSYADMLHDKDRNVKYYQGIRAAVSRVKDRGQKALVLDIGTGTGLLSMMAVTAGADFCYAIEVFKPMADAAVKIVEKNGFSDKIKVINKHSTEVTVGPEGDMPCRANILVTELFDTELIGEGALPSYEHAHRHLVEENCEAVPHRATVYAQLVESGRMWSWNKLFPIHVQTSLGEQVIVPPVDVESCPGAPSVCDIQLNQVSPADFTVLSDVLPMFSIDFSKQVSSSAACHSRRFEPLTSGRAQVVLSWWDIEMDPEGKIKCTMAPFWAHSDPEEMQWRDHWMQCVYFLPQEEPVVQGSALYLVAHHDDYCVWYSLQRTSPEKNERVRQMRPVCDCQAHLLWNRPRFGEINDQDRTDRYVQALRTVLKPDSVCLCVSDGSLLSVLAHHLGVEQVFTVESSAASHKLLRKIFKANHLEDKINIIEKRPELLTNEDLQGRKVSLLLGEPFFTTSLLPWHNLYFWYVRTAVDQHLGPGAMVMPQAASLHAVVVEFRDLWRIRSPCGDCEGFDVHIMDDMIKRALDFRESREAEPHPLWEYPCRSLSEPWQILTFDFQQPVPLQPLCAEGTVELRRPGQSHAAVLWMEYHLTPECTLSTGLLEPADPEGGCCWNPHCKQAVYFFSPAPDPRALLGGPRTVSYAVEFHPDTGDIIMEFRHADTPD
Protocol: (§1) The ability of ETP69 to inhibit methyltransferases was tested.

[3] = biological target: METTL21A (Homo sapiens, UniProt Q8WXB1); experiment: Methyltransferase inhibition panel: METTL21A; format: biochemical
Protocol: as §1

[4] = biological target: T2, NSD2 (T1150A) (Homo sapiens, UniProt O96028, T1150A); experiment: Methyltransferase inhibition panel: NSD2 (T1150A); format: biochemical
T2 sequence (O96028 1-1365 T1150A): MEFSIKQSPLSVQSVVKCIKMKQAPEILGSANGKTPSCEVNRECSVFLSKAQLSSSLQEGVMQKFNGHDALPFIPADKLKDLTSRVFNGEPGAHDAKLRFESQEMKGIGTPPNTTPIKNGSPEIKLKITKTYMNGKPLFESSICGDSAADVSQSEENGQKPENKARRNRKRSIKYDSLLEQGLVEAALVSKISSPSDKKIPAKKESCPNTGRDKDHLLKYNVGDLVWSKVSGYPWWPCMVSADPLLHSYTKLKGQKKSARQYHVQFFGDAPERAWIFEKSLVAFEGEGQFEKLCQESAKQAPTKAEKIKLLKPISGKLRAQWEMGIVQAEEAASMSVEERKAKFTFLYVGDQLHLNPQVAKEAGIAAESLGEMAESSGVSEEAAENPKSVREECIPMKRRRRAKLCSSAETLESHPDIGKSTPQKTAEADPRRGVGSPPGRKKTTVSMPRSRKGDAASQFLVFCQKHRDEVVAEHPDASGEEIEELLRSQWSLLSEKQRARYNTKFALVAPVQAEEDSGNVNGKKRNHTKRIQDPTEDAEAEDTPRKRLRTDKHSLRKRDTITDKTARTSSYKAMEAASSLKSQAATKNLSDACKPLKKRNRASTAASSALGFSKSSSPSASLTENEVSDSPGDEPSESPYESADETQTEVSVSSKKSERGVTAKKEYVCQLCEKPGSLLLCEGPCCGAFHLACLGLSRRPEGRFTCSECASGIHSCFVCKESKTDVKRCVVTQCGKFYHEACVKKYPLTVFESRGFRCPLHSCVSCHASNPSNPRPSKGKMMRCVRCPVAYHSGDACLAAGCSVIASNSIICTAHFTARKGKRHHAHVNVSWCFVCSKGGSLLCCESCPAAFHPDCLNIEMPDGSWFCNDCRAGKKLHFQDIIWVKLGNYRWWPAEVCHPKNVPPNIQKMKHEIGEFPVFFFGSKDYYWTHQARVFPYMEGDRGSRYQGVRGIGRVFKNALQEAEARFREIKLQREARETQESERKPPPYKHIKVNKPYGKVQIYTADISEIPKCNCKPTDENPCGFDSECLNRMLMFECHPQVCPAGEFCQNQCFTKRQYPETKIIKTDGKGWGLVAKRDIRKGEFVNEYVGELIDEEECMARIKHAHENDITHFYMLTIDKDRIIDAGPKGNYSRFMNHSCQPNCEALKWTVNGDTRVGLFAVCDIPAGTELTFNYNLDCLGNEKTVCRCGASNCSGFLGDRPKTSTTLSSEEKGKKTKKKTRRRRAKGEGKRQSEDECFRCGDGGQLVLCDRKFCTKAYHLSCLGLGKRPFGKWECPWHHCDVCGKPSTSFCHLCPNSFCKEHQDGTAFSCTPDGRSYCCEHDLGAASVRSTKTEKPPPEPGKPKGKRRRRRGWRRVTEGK
Protocol: as §1

[5] = biological target: EZH2 Complex (Homo sapiens, UniProt Q15910); experiment: Methyltransferase inhibition panel: EZH2 Complex; format: biochemical; conditions: NT1721 20 μM; substrate Core Histone 0.05 mg/mL
Protocol: as §1

[6] = biological target: SMYD2 (Homo sapiens, UniProt Q9NRG4); experiment: Methyltransferase inhibition panel: SMYD2; format: biochemical
Protocol: as §1

[7] = biological target: SET1b Complex (Homo sapiens, UniProt Q9UPS6); experiment: Methyltransferase inhibition panel: SET1b Complex; format: biochemical
Protocol: as §1

[8] = biological target: SUV39H2 (Homo sapiens, UniProt Q9H5I1); experiment: Methyltransferase inhibition panel: SUV39H2; format: biochemical
Protocol: as §1

[9] = NT1721 20 μM, substrate GST-GAR 5 μM
[10] = read-out: Enzyme % Activity (relative to DMSO controls) Data 1
[11] = read-out: Enzyme % Activity (relative to DMSO controls) Data 2

Sequence of SET1b Complex (Q15291 whole entry): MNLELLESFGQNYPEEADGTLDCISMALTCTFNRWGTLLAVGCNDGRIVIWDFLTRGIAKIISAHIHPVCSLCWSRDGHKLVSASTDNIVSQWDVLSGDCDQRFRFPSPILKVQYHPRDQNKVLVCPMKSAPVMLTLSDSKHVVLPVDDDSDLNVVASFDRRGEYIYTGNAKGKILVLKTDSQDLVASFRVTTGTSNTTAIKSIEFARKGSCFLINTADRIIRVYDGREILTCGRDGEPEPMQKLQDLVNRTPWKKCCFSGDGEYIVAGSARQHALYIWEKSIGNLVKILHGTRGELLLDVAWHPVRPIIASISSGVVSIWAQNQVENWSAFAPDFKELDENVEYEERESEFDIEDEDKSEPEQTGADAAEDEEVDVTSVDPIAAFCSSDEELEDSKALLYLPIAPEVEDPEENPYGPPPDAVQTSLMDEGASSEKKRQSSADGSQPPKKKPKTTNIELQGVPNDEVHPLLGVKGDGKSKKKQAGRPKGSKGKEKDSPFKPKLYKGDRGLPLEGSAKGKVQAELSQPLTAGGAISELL
Sequence of SET1b Complex (Q9UBL3 whole entry, further chain): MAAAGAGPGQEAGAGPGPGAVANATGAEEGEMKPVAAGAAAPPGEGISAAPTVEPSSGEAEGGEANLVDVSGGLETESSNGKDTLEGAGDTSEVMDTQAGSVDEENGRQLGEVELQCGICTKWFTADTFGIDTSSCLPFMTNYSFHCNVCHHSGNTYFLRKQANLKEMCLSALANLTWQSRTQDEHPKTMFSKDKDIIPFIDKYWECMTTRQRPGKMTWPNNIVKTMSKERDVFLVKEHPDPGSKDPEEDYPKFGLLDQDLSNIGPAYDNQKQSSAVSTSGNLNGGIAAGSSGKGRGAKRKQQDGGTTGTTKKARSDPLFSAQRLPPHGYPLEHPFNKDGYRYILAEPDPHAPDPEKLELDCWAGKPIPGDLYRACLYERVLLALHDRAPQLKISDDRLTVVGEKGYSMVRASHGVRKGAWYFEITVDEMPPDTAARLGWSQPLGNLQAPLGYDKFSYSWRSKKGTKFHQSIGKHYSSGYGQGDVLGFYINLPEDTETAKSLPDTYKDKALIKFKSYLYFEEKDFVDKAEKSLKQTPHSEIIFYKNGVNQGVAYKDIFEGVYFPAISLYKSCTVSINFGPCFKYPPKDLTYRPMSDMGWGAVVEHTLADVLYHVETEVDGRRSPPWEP
Sequence of SET1b Complex (Q9UPS6 whole entry): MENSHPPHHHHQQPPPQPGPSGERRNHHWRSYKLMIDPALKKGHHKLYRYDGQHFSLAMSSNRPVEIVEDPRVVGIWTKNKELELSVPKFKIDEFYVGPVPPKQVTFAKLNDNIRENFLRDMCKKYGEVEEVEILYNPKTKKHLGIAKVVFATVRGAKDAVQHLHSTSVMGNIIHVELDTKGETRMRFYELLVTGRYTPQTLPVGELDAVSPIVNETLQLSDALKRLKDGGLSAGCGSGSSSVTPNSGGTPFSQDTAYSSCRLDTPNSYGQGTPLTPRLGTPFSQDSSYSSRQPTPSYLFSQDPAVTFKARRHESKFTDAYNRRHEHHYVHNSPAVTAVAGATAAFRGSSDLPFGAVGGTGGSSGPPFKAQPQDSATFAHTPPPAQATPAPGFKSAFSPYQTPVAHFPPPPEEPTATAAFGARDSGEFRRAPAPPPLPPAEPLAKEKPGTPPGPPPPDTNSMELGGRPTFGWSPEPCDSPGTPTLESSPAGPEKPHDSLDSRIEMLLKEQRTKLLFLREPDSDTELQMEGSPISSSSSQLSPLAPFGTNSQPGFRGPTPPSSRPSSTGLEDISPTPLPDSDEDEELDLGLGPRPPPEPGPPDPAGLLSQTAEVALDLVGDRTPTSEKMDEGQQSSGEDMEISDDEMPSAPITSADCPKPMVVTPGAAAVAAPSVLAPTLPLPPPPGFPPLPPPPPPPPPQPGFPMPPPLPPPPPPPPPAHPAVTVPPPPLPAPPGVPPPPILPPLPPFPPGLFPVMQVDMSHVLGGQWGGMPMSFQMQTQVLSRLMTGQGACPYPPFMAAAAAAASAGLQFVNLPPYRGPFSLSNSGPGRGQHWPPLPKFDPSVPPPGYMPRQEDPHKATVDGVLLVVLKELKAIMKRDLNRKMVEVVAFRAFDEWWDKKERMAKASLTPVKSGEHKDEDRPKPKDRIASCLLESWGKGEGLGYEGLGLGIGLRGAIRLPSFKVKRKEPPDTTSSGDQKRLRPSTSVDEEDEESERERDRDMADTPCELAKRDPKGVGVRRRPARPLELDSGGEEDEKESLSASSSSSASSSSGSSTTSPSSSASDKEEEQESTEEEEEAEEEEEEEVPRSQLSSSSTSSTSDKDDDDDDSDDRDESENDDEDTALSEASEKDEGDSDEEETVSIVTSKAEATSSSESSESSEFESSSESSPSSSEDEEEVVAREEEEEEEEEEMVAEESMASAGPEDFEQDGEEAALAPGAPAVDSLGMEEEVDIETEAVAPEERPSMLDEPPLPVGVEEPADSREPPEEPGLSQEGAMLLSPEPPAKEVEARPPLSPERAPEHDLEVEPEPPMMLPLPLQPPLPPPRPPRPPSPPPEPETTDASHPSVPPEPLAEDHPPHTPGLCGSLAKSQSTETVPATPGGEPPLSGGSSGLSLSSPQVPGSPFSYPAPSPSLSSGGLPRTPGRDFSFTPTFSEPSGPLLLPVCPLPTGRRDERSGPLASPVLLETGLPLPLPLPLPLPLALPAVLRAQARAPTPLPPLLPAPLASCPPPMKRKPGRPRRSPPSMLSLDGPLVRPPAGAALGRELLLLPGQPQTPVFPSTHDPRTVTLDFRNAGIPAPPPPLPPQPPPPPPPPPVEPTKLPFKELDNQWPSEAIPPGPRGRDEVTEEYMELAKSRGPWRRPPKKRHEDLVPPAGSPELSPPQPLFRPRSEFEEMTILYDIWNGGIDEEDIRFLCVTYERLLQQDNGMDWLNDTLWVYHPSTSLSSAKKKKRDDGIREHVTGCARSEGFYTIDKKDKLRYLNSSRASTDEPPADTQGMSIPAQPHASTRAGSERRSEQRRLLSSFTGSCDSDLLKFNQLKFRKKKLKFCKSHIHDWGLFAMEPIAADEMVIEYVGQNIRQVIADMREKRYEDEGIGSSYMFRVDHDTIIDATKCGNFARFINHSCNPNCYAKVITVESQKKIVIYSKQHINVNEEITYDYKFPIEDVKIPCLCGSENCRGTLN
Sequence of SET1b Complex (Q9C005 whole entry, further chain): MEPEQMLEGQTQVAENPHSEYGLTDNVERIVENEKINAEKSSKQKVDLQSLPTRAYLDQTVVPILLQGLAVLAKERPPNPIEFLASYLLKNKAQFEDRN
Sequence of SMYD2 (Q9NRG4 whole entry): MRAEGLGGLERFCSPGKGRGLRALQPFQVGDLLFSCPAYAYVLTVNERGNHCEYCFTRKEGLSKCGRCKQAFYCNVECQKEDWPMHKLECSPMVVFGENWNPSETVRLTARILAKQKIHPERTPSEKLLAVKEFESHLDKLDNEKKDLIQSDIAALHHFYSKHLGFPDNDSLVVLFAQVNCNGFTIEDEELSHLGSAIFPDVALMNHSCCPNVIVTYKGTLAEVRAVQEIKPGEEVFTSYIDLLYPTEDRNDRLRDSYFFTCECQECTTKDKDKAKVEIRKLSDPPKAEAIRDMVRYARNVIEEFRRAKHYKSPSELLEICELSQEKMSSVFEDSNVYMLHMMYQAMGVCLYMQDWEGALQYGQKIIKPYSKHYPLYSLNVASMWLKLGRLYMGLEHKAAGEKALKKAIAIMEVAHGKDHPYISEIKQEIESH
Sequence of SUV39H2 (Q9H5I1 whole entry): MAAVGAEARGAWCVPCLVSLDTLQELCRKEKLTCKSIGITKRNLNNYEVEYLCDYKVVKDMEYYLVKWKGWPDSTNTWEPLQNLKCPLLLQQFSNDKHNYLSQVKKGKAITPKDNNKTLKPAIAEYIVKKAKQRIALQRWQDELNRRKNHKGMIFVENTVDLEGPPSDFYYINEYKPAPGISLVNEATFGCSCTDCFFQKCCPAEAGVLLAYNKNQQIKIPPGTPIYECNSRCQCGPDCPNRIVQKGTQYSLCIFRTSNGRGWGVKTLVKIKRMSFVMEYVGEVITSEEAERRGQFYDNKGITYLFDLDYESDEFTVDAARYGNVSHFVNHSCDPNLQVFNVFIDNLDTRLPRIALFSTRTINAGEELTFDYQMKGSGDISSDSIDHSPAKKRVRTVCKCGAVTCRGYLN
Sequence of METTL21A (Q8WXB1 whole entry): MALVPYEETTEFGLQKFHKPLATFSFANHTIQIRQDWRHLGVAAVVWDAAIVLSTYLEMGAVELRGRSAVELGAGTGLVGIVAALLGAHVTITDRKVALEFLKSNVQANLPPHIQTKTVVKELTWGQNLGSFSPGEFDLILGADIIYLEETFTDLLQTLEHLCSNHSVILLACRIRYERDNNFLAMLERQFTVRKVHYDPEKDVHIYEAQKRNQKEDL

CN1C(=O)[C@@]23C[C@](C)(C#N)[C@H](c4ccc5c(c4)OCO5)N2C(=O)[C@]1(C)SS3 (racemic) [ETP69, Rac-(3S,6S,7S,8aS)-6-(benzo[d][1,3]dioxol-5-yl)-2,3,7-trimethyl-1,4-dioxohexahydro-6H-3,8a-epidithiopyrrolo[1,2-a]pyrazine-7-carbonitrile]
GFAP [1]: significant decrease | Enzyme % Activity (relative to DMSO controls) Data 1 [2, 9]: 66.70% | Enzyme % Activity (relative to DMSO controls) Data 2 [2, 9]: 66.73% | inhibition relative to DMSO controls ([2]; summary of Table 1): at least 7500 | remaining activity at 20 µM [3, 10]: 78.6% | remaining activity at 20 µM [3, 11]: 78.5% | remaining activity at 20 µM [4, 10]: 23.9% | remaining activity at 20 µM [4, 11]: 25.5% | inhibition relative to DMSO controls ([4]; summary of Table 1): at least 7500 | Enzyme % Activity (relative to DMSO controls) Data 1 [5]: 98.37% | Enzyme % Activity (relative to DMSO controls) Data 2 [5]: 97.85% | remaining activity at 20 µM [6, 10]: 4.23% | remaining activity at 20 µM [6, 11]: 4.97% | inhibition relative to DMSO controls ([6]; summary of Table 1): at least 7500 | remaining activity at 20 µM [7, 10]: 0.6% | remaining activity at 20 µM [7, 11]: 0.47% | inhibition relative to DMSO controls ([7]; summary of Table 1): at least 7500 | remaining activity at 20 µM [8, 10]: 4.4% | remaining activity at 20 µM [8, 11]: 4.4% | inhibition relative to DMSO controls ([8]; summary of Table 1): at least 7500
